Reference: patent publication US6759432B2, “Medical use of matrix metalloproteinase inhibitors for inhibiting tissue contraction” (University of Florida Research Foundation, priority 1994, dated 2004)
pKi: −log10 of the molar value.

Key:
[1] = system: Human ocular fibroblasts (Tendon's capsule fibroblasts); assay: Toxicity by tritiated thymidine incorporation (DNA synthesis); type: cell-based; conditions: 80.0, 8.0 and 0.8 μg/ml; 24 hours; medium plus 10% serum and vehicle
Method: The toxicity of the inhibitors was tested by measuring DNA synthesis by tritiated thymidine incorporation. The assay was adapted from a procedure previously described, Woost, P. G. et al 1992.
Human ocular fibroblasts (Tendon's capsule fibroblasts) were cultured in Trimix (DMEM/F-10/M-199) cell culture medium (available from GIBCO/BRL) supplemented with 10% bovine calf serum and grown to confluency in T-75 tissue culture flasks. (That is flasks having a surface area of 75 cm^2.) The cells were split and seeded into 24 well plates at a density of 1×10^4/well in 1.0 ml of medium with 10% bovine calf serum. The cells were incubated for 24-36 hours or until they reached 60-70% confluency. The medium was then changed to serum-free Trimix and the cells were incubated for an additional 24 hours. The cells were then incubated in quadruplicate wells for 24 hours with 1.0 μCi/well ^3H-thymidine in the following conditions: serum-free medium (Trimix), medium plus 10% serum, medium plus 10% serum and vehicle, alone or with the inhibitors. The vehicle was a buffered acetate solution. The solutions comprising medium with 10% serum and vehicle, alone or with inhibitors, were prepared by the method described in Example 1, section (c), above, using Trimix instead of the HEPES buffered DMEM. […] Radioactivity was determined by liquid scintillation counting […] of the solubilized cells. […]

gelatinase = assay: Inhibition constant with gelatinase; type: biochemical
human ocular fibroblasts [2] = assay: Contraction of fibroblast populated collagen gels (lattice area); type: cell-based; conditions: for contraction of gels (mean lattice area): 40 and 4 μg/ml, 7 days, vs hydroxamic acid control
Method: They were then removed from their substratum via a trypsinisation and were pelleted by centrifugation at 3000× g for 8 minutes. The supernatant was then discarded and the cell pellet resuspended in 1.1 ml of newborn calf serum. 100 μl of the suspension was removed and counted in a Coulter counter (Model ZF).
Triplicate gels were made by adding 1.05 ml of the concentrated medium to 1.8 ml of the type 1 collagen solution, mixing rapidly and then adding 0.45 ml of a cell suspension containing 300,000 cells and mixing rapidly.
1 ml aliquots of this gel were then added to petri dishes (area=8 cm^2) and then the dishes were rotated so that the gels were evenly distributed across the bottoms of the dishes. The gels were then incubated at 37° C. in 5% CO2 in air until they had solidified (usually 3 to 5 minutes). An area of the gel was then detached from the edge of each petri dish and 3 ml of normal growth medium solution (control 2), inhibitor test solution or buffer solution (control 1), were added. Each gel was then fully detached from the edges and bottom of the petri dish so that free-floating gels were obtained.
The gels, after solidification, were treated for 24 hours with 3 ml of each of the following test solutions:
The test and control solutions were replaced by 3 ml of the appropriate fresh solution after 24 hours. Photographs of the gel areas were taken on days 1 and 2 and were then digitised. The resulting data were processed by a computer and the gel areas were calculated. Phase-contrast photographs were taken of the top and middle of each gel after 1 and 2 days.
Test solutions were used in approximately 3 ml doses. For all contraction experiments cell morphology was monitored by phase contrast microscopy and the growth medium was changed every 3 to 4 days.
Collagen gels were seeded with either 100,000 or 500,000 cells. […] The gels were monitored for 7 days.
They were exposed to inhibitor and control solutions in the following ways:
The experiment was carried out as for (a) above with 1×10^5 cells per lattice and the test solutions used were BB-94 4 μg/ml, BB-94 0.4 μg/ml and control with vehicle (0.1% vol/vol DMSO). The development of the lattices was followed for seven days after seeding.
The experiment was carried out as for (d) above except that the test solutions used were 1:50 (vol/vol) of antibodies in growth medium. The antibodies used were antibodies to MMPs 1, 2, 3 and 9, obtained from Biogenesis Ltd., (Poole, U.K.). A control solution of 0.1% sodium azide and 0.14% rabbit serum in PBS diluted to 1:50 in growth medium was also used.

human ocular fibroblasts [3] = assay: Cytotoxicity: cell count and trypan blue dye exclusion; type: cell-based; conditions: 40 and 4 μg/ml; 2×10^4 cells per well; vs control medium
Method: This experiment was carried out substantially according to the method of Example 2, except that cells were seeded at 2×10^4 cells per well, cultured without radioactive material and were exposed to control medium (DMEM/10% NCS) or Galardin at 40 μg/ml and 4 μg/ml concentration. […] Wells were harvested and cells counted on a haemocytometer, see FIG. 3E for the results, and the percentage of viable cells in each well was measured using the trypan blue dye exclusion test, see FIG. 3F for the results.

[4] = system: MMP activity (proteolytically active species) of human Tenon's capsule fibroblasts; assay: Gelatin zymography of seeded collagen lattices; type: cell-based; conditions: treatment of seeded lattices
Method: Samples of conditioned medium and collagen lattices (1×10^5 cells/lattice) were collected on days 1, 3 and 7 post seeding. Lattices were washed in phosphate buffered saline (PBS; 3×3 ml) prior to homogenisation in 0.5% (vol/vol) Triton-X100 in PBS (Hunt et al. 1993]. Gelatin zymography [Heussen & Dowdle 1980] was then performed on these samples. Briefly, samples and prestained molecular weight standards were resolved on 10% tris glycine gels containing 0.1% gelatin (Novex, R&D Systems, Oxford, U.K.). Gels were then incubated for 30 minutes in renaturing buffer, 30 minutes in developing buffer followed by a further 18 hours in developing buffer at 37° C. (all Novex). Gels were than stained in 0.5% (wt/vol) commassie blue in 45% (vol/vol) water, 45% (vol/vol) methanol and 10% (vol/vol) glacial acetic acid, followed by destaining in 45% (vol/vol) water, 45% (vol/vol) water, 45% (vol/vol) methanol and 10% (vol/vol) glacial acetic acid. MMP activity appeared as clear bands on a blue background.

human dermal fibroblasts = assay: Collagen lattice contraction, human dermal fibroblasts; type: cell-based; conditions: 40 μg/ml
Method: (§1) Collagen lattices (gels) were prepared as previously described in Example 1 and were seeded with 1×10^5 cells per lattice of:
(§2) The lattices were then exposed to growth medium containing Galardin at 40 μg/ml or hydroxamic acid at 100μM (control). The test solutions were made up as described in Example 3 above and approximately 3 ml dose of the appropriate test solutions were used.

[5] = system: rat parietal sheath fibroblasts; assay: Collagen lattice contraction, rat parietal sheath fibroblasts; type: cell-based; conditions: 40 μg/ml
Method: as §1, §2

[6] = system: rat endotendon fibroblasts; assay: Collagen lattice contraction, rat endotendon fibroblasts; type: cell-based; conditions: 40 μg/ml
Method: as §1, §2

[7] = system: human keratinocytes and human dermal fibroblasts; assay: Contraction of artificial skin equivalent; type: cell-based; conditions: 40 μg/ml; 7 days; vs hydroxamic acid 100 μM
Method: The effect of an MMP inhibitor on the contraction of an artificial skin equivalent was tested. […] This lattice was then exposed to growth medium containing Galardin at 40 μg/ml or hydroxamic acid at 100μM (control).

ocular fibroblasts = assay: Fibroblast morphology within collagen lattices (phase contrast microscopy); type: cell-based, human
Method: Collagen lattices seeded with ocular fibroblasts were prepared and exposed to MMP inhibitors, both synthetic chemicals and antibodies, as described in Example 3 above. Cellular morphology was monitored by phase contrast microscopy.

[8] = system: Tenons capsule fibroblast; assay: Actin cytoskeleton staining with FITC-phalloidin; type: cell-based, human; conditions: 40 μg/ml
Method: Monolayer cultures of fibroblasts and collagen lattices (gels) seeded with 1×10^5 cells per lattice were prepared (as described in Example 1).
In order to assess whether this difference was owing to the direct effect of the inhibitor or to differences in the degree of invasion into the matrix, cells were exposed in monolayer culture to the inhibitor and the cytoskeleton was-stained. See FIGS. 10A (control) and 10B (exposed to inhibitor). The arrows indicate the stress fibres on the cells in the monolayer culture.

stromelysin = stromelysin (Homo sapiens, UniProt P08254); assay: biochemical
stromelysin, sequence (P08254 100-477): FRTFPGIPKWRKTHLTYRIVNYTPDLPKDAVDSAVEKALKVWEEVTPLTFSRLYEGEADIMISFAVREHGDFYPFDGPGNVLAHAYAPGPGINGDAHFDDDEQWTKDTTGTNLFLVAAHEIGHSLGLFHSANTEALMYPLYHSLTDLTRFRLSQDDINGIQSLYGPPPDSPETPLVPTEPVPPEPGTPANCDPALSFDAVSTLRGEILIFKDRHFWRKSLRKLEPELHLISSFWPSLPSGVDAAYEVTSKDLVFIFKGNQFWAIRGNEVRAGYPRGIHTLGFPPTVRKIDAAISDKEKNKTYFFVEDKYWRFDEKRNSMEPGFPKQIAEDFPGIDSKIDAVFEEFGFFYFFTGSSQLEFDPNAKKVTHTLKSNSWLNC

[9] = 1×10^5 cells per lattice, 7 days, vs hydroxamic acid 100 μM

## CC(C)C[C@H](CC(=O)O)C(=O)N[C@@H](Cc1c[nH]c2ccccc12)C(=O)N[C@@H](C)c1ccccc1 [GM1489]
[1]
  toxicity (3H-thymidine incorporation): no significant toxicity

## CNC(=O)[C@H](Cc1c[nH]c2ccccc12)NC(=O)[C@@H](CC(=O)NO)CC(C)C [GM6001, N-[2(R)-2-(hydroxamidocarbonylmethyl)-4-methylpentanoyl]-L-tryptophan methylamide]
gelatinase
  pKi: 9.40
Human ocular fibroblasts [2]; 4 μg/ml from day 5 for 25 days, vs control solution
  contraction of lattices already contracted for 5 days: inhibited contraction
Human ocular fibroblasts [2]; 4 μg/ml until day 14, then control solution
  contraction after replacement of inhibitor by control solution (reversibility): significant increase in contraction from day 14 onwards
Human ocular fibroblasts [2]; 40 μg/ml from day 5 for 25 days
  contraction of lattices already contracted for 5 days: stronger inhibitory effect than the 4 μg/ml solution
Human ocular fibroblasts [2]; 400, 40 and 4 μg/ml, 100,000 cells per gel, 2 days, vs buffer and normal growth medium
  contraction of collagen gels (gel area): inhibited the contraction of the collagen gels
Human ocular fibroblasts [2]; 400, 40 and 4 μg/ml, 2 days
  dose dependence of inhibition of gel contraction: dose dependent
  viability of cells in the collagen gels at end of test (phase contrast microscopy): appeared to be viable
Human ocular fibroblasts [2]; 100,000 cells per lattice
  contraction of gels (mean lattice area): much less than that of gels exposed to control solutions
Human ocular fibroblasts [2]; 500,000 cells per lattice
  contraction of gels (mean lattice area): much less than that of gels exposed to the control solution
Human ocular fibroblasts [2]; continual exposure to 4 μg/ml, 1×10^5 cells/lattice, up to 40 to 50 days
  contraction of lattices (mean lattice area): very little contraction
[1]
  toxicity (3H-thymidine incorporation): no significant toxicity
Human ocular fibroblasts [3]
  cell number per well (haemocytometer): did not adversely affect
  cell viability (percentage of viable cells, trypan blue): did not adversely affect
[4]
  proteolytically active species in gelatin zymography: abolishment of the four proteolytically active species
Human dermal fibroblasts; [9]
  contraction of lattices (mean lattice area): greatly reduced
Human dermal fibroblasts; compared to controls
  cellular invasion into and migration through the surrounding matrix: decreased cellular invasion into and migration through
[5]; [9]
  contraction of lattices (mean lattice area): greatly reduced
[5]; compared to controls
  cellular invasion into and migration through the surrounding matrix: decreased cellular invasion into and migration through
[6]; [9]
  contraction of lattices (mean lattice area): greatly reduced
[6]; compared to controls
  cellular invasion into and migration through the surrounding matrix: decreased cellular invasion into and migration through
[7]
  contraction of artificial skin equivalent (mean lattice area): less contraction than those exposed to the control solution
Ocular fibroblasts; 4 μg/ml, 7 days post seeding
  cell morphology in lattices: Small cytoplasmic projections
Ocular fibroblasts; synthetic inhibitors as in Example 3, compared to controls
  invasion into the surrounding collagen matrix: decreased invasion into the surrounding collagen matrix
[8]; collagen lattice
  actin stress fibres on cells populating collagen gels: do not appear to be present
[8]; monolayer culture, compared to controls
  actin cytoskeleton in monolayer culture: did not appear to affect the actin cytoskeleton
stromelysin
  pKi: 7.70
